Measurements from patent US10759796B2, “CXCR4 inhibitors and uses thereof” (X4 Pharmaceuticals, Inc., priority 2016, dated 2020).
Where two headings read alike, the source gives them in different places.

Columns and labels:
[1] = Mouse brain uptake assay (pharmacokinetics and brain penetration after IV administration), 0-1 h, 3 time points; format: in vivo, Male CD1 Mice; conditions: male; for Kp uu: CD1, brain and plasma, read-out: Kp, uu (unbound brain/unbound plasma drug concentration ratio); for Kp uu / clearance / half-life: Mouse, 0-1 h; for Kp uu / clearance / half-life / AUC(0-t): 3 mg/kg IV; for Kp: CD1, mouse, brain and plasma, iv, 3 mg/kg, read-out: Kp (brain/plasma drug concentration ratio); for clearance / half-life: CD1, plasma, 3 time points; for half-life: read-out: t½ (converted); for AUC(0-t): CD1, time zero to 1 hr
Method: Example 29: Pharmacokinetics and Brain Penetration Experiment to Determine Brain and Plasma Concentrations of Compounds After IV Administration to Male CD1 Mice or Male SD Rat
The study design (9 animals) consisted of administrating the drug (IV: 3 mg/kg (5 mL/kg) via tail vein injection) and collecting samples at terminal bleeding for plasma and brain at 0.083, 0.5 and 1 h. The blood collection was performed as follows: the animal was restrained manually and approximately 150 μL blood/time point was collected into a dipotassium EDTA tube via retro orbital puncture under anesthesia with isoflurane. The blood sample was put on ice and centrifuged to obtain a plasma sample (2000 g, 5 min under 4° C.) within 15 minutes. The brain collection was performed as follows: a mid-line incision was made in the animal's scalp and the skin was retracted. Using small bone cutters and rongeurs, the skull overlying the brain was removed. The brain was removed using a spatula and the brain rinsed with cold saline. The brain was placed in screw-top tubes, and the tubes were stored at −70° C. until analysis. The IV dosing solution was prepared in 50 mM citrate buffer (pH 4.0) at 0.6 mg/mL.
Plasma Sample Preparation:
An aliquot of 30 μL sample was added to 150 μL MeCN containing 50 ng/mL IS (Dexamethasone). The mixture was vortexed for 5 min and centrifuged at 14,000 rpm for 5 min. An aliquot of 5 μL supernatant was injected for LC-MS/MS analysis.
Brain Sample Preparation:
An aliquot of 30 μL brain homogenate (brain:PBS=1:3, w/v) sample was added to 150 μL IS in ACN (Dexamethasone, 50 ng/mL). The mixture was vortexed for 5 min and centrifuged at 14,000 rpm for 5 min. An aliquot of 5 μL supernatant was injected for LC-MS/MS analysis.
The sample analysis was performed on LCMS/MS-003 (API4000, triple quadruple) under the following conditions: positive ion, ESI, MRM detection using dexamethasone as internal standard. HPLC conditions: mobile phase A: H2O (0.025% formic acid (FA) with 1 mM NH4OAc); mobile phase B: MeOH (0.025% FA with 1 mM NH4OAc) on Waters X-Bridge C18 (2.1×50 mm, 2.5 μm) column at 60° C.

[2] = in vitro; conditions: human, Caco-2, pH 7.4
Summary of the method: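 Compounds at 10 μM in HBSS pH 7.4 (0.1–0.3% DMSO) were dosed on Caco-2 monolayers, apical-to-basolateral and basolateral-to-apical, for 90 min at 37 °C, in duplicate. Monolayer integrity was checked by TEER and lucifer yellow flux, read by fluorescence at 485/535 nm. Compound was quantified by LC-MS/MS and Papp calculated.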

[3] = molecular target: CXCR-4 transfected U87 cell line (U87.CXCR4) (Homo sapiens (Human), UniProt P61073); assay: Intracellular CXCL-12-induced calcium mobilization assay (FLIPR); format: cell-based; conditions: U87.CXCR4 cells, CXCL-12 25-50 ng/mL; read-out: IC50 CXCL-12 Ca2+ flux U87.CXCR4+
Summary of the method: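 U87.CXCR4 cells were seeded at 20,000 per well, cultured 12 hours, then loaded with 4 μM Fluo-2 AM for 45 min at 37° C. in HBSS with 20 mM HEPES and 0.2% BSA, pH 7.4. Calcium flux triggered by CXCL-12 (25-50 ng/mL) was tracked over time by FLIPR fluorescence at 37° C.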

[4] = Fraction of drug unbound to brain proteins, mouse; format: in vitro ADME; conditions: read-out: Fu (b) %
[5] = Mouse brain, read-out: AUClast (b)
[6] = Mouse plasma, read-out: AUClast (p)

CXCR-4 transfected U87 cell line (U87.CXCR4), sequence (P61073 whole entry): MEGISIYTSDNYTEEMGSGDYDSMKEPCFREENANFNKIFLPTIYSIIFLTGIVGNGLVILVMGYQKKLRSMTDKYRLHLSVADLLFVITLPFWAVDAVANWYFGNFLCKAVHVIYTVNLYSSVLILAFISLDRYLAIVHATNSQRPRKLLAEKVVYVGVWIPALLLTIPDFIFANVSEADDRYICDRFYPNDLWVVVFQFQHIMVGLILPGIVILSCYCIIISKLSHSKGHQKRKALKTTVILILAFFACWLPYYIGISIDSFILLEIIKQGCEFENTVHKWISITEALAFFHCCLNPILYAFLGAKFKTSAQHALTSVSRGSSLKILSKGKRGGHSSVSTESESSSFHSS

Structure (SMILES)	Kp uu [1]	Kp [1]	clearance [1] [mL/min/kg]	half-life [1] [min]	AUC(0-t) [1, 5] [ng·h/mL]	AUC(0-t) [1, 6] [ng·h/mL]	Papp A→B at 90 min, 10 μM [2] [×10⁻⁶ cm/s]	Papp B→A at 90 min, 10 μM [2] [×10⁻⁶ cm/s]	efflux ratio at 90 min, 10 μM [2]	IC50 [3] [nM]	fraction unbound ([4]; Mouse brain proteins (Table 9))	fraction unbound ([4]; Mouse brain proteins (Table 12))
Cc1cccnc1[C@@H]1CCC[C@H](c2nc3cccc(N4CCN(C(C)C)CC4)n3c2Br)N1C [Compound I-20]	0.3	6.29	173	22.4	1520	241	0.1 to 10	0.1 to 10	0.1 to 10	100 to 1000	0.001	
CN1CCN(c2cccc3nc([C@H]4CCC[C@@H](c5ncccc5Cl)N4)cn23)CC1 (racemic) [Compound I-149]	0.38	1.45	207	22	295	203	10 to 30	10 to 30	0.1 to 10	0.01 to 100	0.026	
CN1CCN(c2cccc3nc([C@@H]4CCC[C@H](c5ncccc5Cl)N4)cn23)CC1 (single isomer, unassigned) [Compound I-189]							10 to 30	10 to 30	0.1 to 10	100 to 1000		
CN1CCN(c2cccc3nc([C@H]4CCC[C@@H](c5ncccc5Cl)N4)cn23)CC1 (single isomer, unassigned) [Compound I-188]							10 to 30	10 to 30	0.1 to 10	0.01 to 100		0.054
Cc1cccnc1[C@@H]1CCC[C@H](c2cn3c(-c4cccnc4)cccc3n2)N1C [Compound I-6]		0.61	48.3	216	326	531	10 to 30	10 to 30	0.1 to 10	0.01 to 100		
Cc1cccnc1[C@@H]1CCC[C@H](c2nc3cccc(N4CCN(C)CC4)n3c2Cl)N1C [Compound I-18]	0.43	11.8	245	20.6	2060	175	0.1 to 10	0.1 to 10	0.1 to 10	0.01 to 100	0.002	
CCN1CCN(c2cccc3nc([C@H]4CCC[C@@H](c5ncccc5C)N4C)c(Br)n23)CC1 [Compound I-19]	0.32	8.84	223	21.8	1690	191	0.1 to 10	0.1 to 10	0.1 to 10	0.01 to 100	0.001	
Cc1cccnc1[C@@H]1CCC[C@H](c2cn3c(N4CCN(C)CC4)cccc3n2)N1 [Compound I-187]	0.05	0.22	127	21.2	76.5	335	0.1 to 10	10 to 30	0.1 to 10	0.01 to 100	0.071	
Cc1cccnc1[C@@H]1CCC[C@H](c2nc3cccc(N4CCC(N(C)C)CC4)n3c2Cl)N1C [Compound I-114]	0.08	0.76	117	43.2	205	267	0.1 to 10	0.1 to 10	0.1 to 10	0.01 to 100	0.003	
Cc1cccnc1[C@@H]1CCC[C@H](c2nc3cccc(N4CCN(C)CC4)n3c2Cl)N1 [Compound I-146]	0.21	1.86	7.22	361	1640	884	10 to 30	10 to 30	0.1 to 10	100 to 1000	0.006	
